# How the values were obtained:
# calvaria = assay: Activity of inhibiting bone absorption (PTH-intensified calcium release from cultured calvaria); assay type: cell-based, dd mouse; conditions: Mus musculus, human PTH 1-34 1×10^-8 M, 96 hours, read-out: Inhibition Rate
# Method: A calvaria of a 5 to 6 day-old dd mouse was aseptically cut off, washed with Dulbecco's modified phosphate buffered saline not containing calcium and magnesium (manufactured by Gibco Oriental Co.) and separated along the sutura of its center. One half of the calvaria so separated was cultured in 1.5 ml of Dulbecco's modified Eagle medium (manufactured by Gibco Oriental Co.) containing 15% of thermally inactivated (at 56° C. for 20 minutes) horse serum and 2.5% of fetal calf serum. The test compound was dissolved in dimethyl sulfoxide, and 10 μl (final concentration: 1×10^-4 M or 1×10-^5 M) of the solution so prepared was added to the culture. Parathyroid hormone (human PTH 1-34, manufactured by Sigma Co.) was dissolved in 0.15 M sodium chloride solution (pH 3), and 3 μl (final concentration: 1×10^-8 M) of the solution so prepared was added to the culture. The cultivation was carried out for 96 hours at 37° C. in an atmosphere consisting of 95% of air and 5% of carbon dioxide. The culture medium was once replaced with a fresh one after 48 hours from the beginning of the cultivation. The concentration of dissolved calcium (i.e., absorption of bone) from the PTH-intensified bone was determined by measuring the quantity of calcium accumulated in the culture collected in 96 hours of cultivation, whereby the concentration of total calcium contained in the culture was measured with Calcium C-Test Wako (manufactured by Wako Pure Chemicals Co., Ltd.), and the inhibition rate was calculated therefrom in accordance with the equation set forth below. [formula] Cd : Total calcium concentration in the culture treated with both test compound and PTH
# Cp : Total calcium concentration in the culture treated with PTH alone
# Co Total calcium concentration in the culture treated with neither test compound nor PTH
# [1] = test system: cells obtained from the spleen of Balb/c mice sensitized with sheep red blood cells; assay: Plaque Forming Cell Assay (inhibition of antibody production); assay type: cell-based, Balb/c strain male mice; conditions: for inhibition at 100 µM / inhibition at 10 µM: Mus musculus, Erythrocyte, inhibition of antibody production, read-out: Inhibition Rate
# Method: The method developed by Jerne [Science, 140, 405 (1963)] and Yamamoto, et al [Drugs. Exptl. Clin. res., 8, 5 (1982)] were modified for plaque forming cell assay.
# That is, Balb/c strain male mice (age of 7 weeks, Charles River Japan Inc.) were sensitized with 1×10^8 sheep red blood cells (Bio Test Research Institute) and the spleen was extirpated on the sixth or seventh day. The cells obtained from the spleen were treated with ACT solution (Tris-ammonium chloride isotonic buffer) to remove red blood cells. The cells were washed three times with RPMI-1640 medium (Nissui Pharmaceutical Co. . The cells (1×10^7) were incubated in RPMI-1640 medium containing 10% calf fetal serum (Gibco Co.), 50 μg/ml streptomycin, 50 IU/ml of penicillin, 2-mercaptoethanol (5×10^-5 M), sheep red blood cells (5×10^6 cells) and a test compound dissolved in dimethyl sulfoxide supplied on a microculture plate (NUNC Co., 24 wells) in a carbon dioxide gas incubator (TABAI ESPEC CORP) at 37° C. for 5 days.
# After completion of the incubation, the cells were transferred to a plastic test tube and centrifuged at 2000 rpm. After the supernatant was removed, the cells were resuspended in 1 ml of RPMI-1640 medium. The cell suspension was sealed in a Cunnigham chamber (Takahashi Giken Co.) together with sheep red blood cells and guinea pig complement (Cedarlane Research Institute) according to the method of Cunnigham [Immunology, 14, 599 (1968)] and incubated at 37° C. for 1 to 2 hours. Direct plaque forming cell (PFC) count was counted.
# A rate of inhibiting antibody production by the test compound was determined by the following equation. [formula] A : PFC count in the absence of test compound (dimethylsulfoxide alone) B : PFC count in the presence of test compound
# dd-strain male mice = assay: Acute toxicity test; assay type: in vivo; conditions: orally administered, mortality for 7 days
# Method: A test compound was orally administered to three dd-strain male mice weighting 20±1 g. The minimum lethal dose (MLD) was determined by observing the mortality for 7 days after the administration.
SMILES,inhibition at 100 µM (calvaria) [%],Direct PFC Count (mean ± S.E.M.) ([1]; 10^-4 M),Direct PFC Count (mean ± S.E.M.) ([1]; 10^-5 M),inhibition at 100 µM ([1]; 10^-4 M) [%],inhibition at 10 µM ([1]; 10^-5 M) [%],inhibition at 10 µM (calvaria) [%],minimum lethal dose (MLD) (dd-strain male mice) [mg/kg]
"O=C(Nc1cccnc1)c1c(O)c2sccc2[nH]c1=O [Compound 1, 4,5-Dihydro-7-hydroxy-5-oxo-N-(3-pyridyl)thieno[3,2-b]-pyridine-6-carboxamide]",-1,–,–,–,–,–,–
"O=C(Nc1ccncc1)c1c(O)c2sccc2[nH]c1=O [Compound 2, 4,5-Dihydro-7-hydroxy-5-oxo-N-(4-pyridyl)thieno[3,2-b]-pyridine-6-carboxamide]",51,–,–,–,–,–,–
"CCCCn1c(=O)c(C(=O)Nc2ccncc2)c(O)c2sccc21 [Compound 3, 4-(n-Butyl)-4,5-dihydro-7-hydroxy-5-oxo-N-(4-pyridyl)thieno-[3,2-b]pyridine-6-carboxamide]",–,101 ± 76,59 ± 38,98,98.8,141,–
"CCCCn1c(=O)c(C(=O)Nc2cccnc2)c(O)c2sccc21 [Compound 4, 4-(n-Butyl)-4,5-dihydro-7-hydroxy-5-oxo-N-(3-pyridyl)thieno-[3,2-b]pyridine-6-carboxamide]",–,336 ± 124,395 ± 52,93.3,92.1,58,> 300
"CCCCn1c(=O)c(C(=O)Nc2ccncc2)c(O)c2ccsc21 [Compound 5, 7-(n-Butyl)-6,7-dihydro-4-hydroxy-6-oxo-N-(4-pyridyl)thieno-[2,3-b]pyridine-5-carboxamide]",–,109 ± 77,227 ± 131,97.8,95.5,53,–
"CCCCn1c(=O)c(C(=O)Nc2cccnc2)c(O)c2ccsc21 [Compound 6, 7-(n-Butyl)-6,7-dihydro-4-hydroxy-6-oxo-N-(3-pyridyl)thieno-[2,3-b]pyridine-5-carboxamide]",–,42 ± 29,59 ± 29,99.2,98.8,38,–
"O=C(Nc1ccncc1)c1c(O)c2ccsc2[nH]c1=O [Compound 7, 6,7-Dihydro-4-hydroxy-6-oxo-N-(4-pyridyl)thieno[2,3-b]-pyridine-5-carboxamide]",–,–,–,–,–,32,> 300
"O=C(Nc1cccnc1)c1c(O)c2ccsc2[nH]c1=O [Compound 8, 6,7-Dihydro-4-hydroxy-6-oxo-N-(3-pyridyl)thieno[2,3-b]-pyridine-5-carboxamide]",–,–,–,–,–,18,–

# — patent US5219864A, “Thienopyridine derivatives” (Kyowa Hakko Kogyo Co., Ltd., priority 1991, dated 1993)
